The values below come from patent US20160046592A1, “PHARMACEUTICAL COMPOSITION FOR THE TREATMENT OF DIABETES” (Ajinomoto Co., Inc., priority 2013, published 2016).

Where a name gives a salt, the structure may show the parent alone.

One assay deals with T1, PPAR-α (Homo sapiens, UniProt Q07869).
T1 construct: expressed in transfected cells; host or cells: CV-1 (African green monkey kidney)
T1 sequence (Q07869 167-468): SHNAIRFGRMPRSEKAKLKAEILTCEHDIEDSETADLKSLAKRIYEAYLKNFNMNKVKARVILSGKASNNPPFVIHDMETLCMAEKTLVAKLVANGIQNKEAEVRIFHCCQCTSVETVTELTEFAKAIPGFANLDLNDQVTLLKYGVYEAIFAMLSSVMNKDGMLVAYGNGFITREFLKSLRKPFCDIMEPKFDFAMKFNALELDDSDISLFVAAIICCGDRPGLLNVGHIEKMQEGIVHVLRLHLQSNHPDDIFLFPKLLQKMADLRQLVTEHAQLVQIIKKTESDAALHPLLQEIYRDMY
Description: Measurement of PPAR-α activity (GAL4 luciferase reporter assay in CV-1 cells). Particulars: 100(A/B): A = maximum PPAR-α activity of test compound at 3, 10, 30 and 100 μM, B = activity of the compound of WO/2011/058154 at 100 μM, 18 to 20 hours. Format: cell-based. As for the experimental part:
The PPAR-α activity was measured according to the published article (THE JOURNAL OF BIOLOGICAL CHEMISTRY Vol. 270, No 0.22: 12953-12956, 1995).
Plasmids used for the PPAR-α activity measurement were constructed as follows. A luciferase expression plasmid (UAS×5-TK-Luc) used was obtained by introducing a sequence in which five yeast GAL4-binding sequences are linked in tandem into a portion upstream of a thymidine kinase promoter of pTAL-Luc (Takara Bio Inc., 6252-1). A PPAR-α receptor expression plasmid (hGR-GAL4-hPPARα) used was obtained by introducing a human GR N-terminal region (1-76aa), a yeast GAL4 DNA-binding region (1-147aa), and a PPARα ligand-binding region (167-468aa) between Not I and Sal I sites of pExchange-1 Core Vector (Invitrogen, 211176).
A reporter assay was conducted by the following method using African green monkey kidney-derived CV-1 cells. The CV-1 cells were seeded in a 96-well plate (Thermo Fisher Scientific K.K., 4938) at 2×10^4 cells/well by using a 10% FBS-containing DMEM (NACALAI TESQUE, INC., 0845874) medium. After culturing under conditions of 37° C. and 5% CO2 for 2 hours, the cells were transfected with the plasmids. The transfection was conducted by using Lipofectamine LTX (Invitrogen, 15338-100) according to the attached manual. The plasmid solution was prepared by adding a mixture solution of the luciferase expression plasmid and the PPAR-α receptor expression plasmid to OPTI-MEM I (Invitrogen, 11058-021). After the transfection, the test compound was added, and the cells were cultured at 37° C. in the presence of 5% CO2 for 18 to 20 hours. After the culturing, the luciferase activity was measured with Luminescensor JNR (ATTO) by using Bright-Glo (Promega, E2620).
The fold induction of PPAR-α by each test compound was calculated by the following method. A relative fold induction (%) of PPAR-α by the test compound was defined as 100 (A/B), where A represents the maximum value of the PPAR-α activities of the test compound at 3 μM, 10 μM, 30 μM, and 100 μM, and B represents the PPAR-α activity of the compound of WO/2011/058154 at 100 μM.
A general note: A reporter such as luciferase makes a cellular process visible.
Consider `NC(=O)C1CC[C@@H](C(=O)O)N1C(=O)c1cccc(COc2ccc(-c3cc(F)c(F)c4ccoc34)cc2)c1` (single isomer, unassigned) [Example 76, (2S,5S) or (2S,5R)-5-Carbamoyl-1-[3-[[4-(4,5-difluorobenzofuran-7-yl)phenoxy]methyl]benzoyl]pyrrolidine-2-carboxylic Acid], for which the “Relative fold induction (%) of PPAR α” value turned out to be 42%.

The same assay, now with this note: 100(A/B): A = maximum PPAR-α activity of test compound at 3, 10, 30 and 100 μM, B = activity of the compound of WO/2011/058154 at 100 μM, 18 to 20 hours, read-out: Relative fold induction (%) of PPAR α.
On to `CN(C)C(=O)CN(CC(=O)O)C(=O)c1cccc(COc2ccc(-c3cc(F)c(F)c4ccoc34)cc2)c1` [Example 11, 2-[[3-[[4-(4,5-Difluorobenzofuran-7-yl)phenoxy]methyl]benzoyl]-[2-(dimethylamino)-2-oxo-ethyl]amino]acetic Acid], for which the Emax was determined as 7.4%.
On to `CSc1cc(F)c(F)cc1-c1ccc(OCc2cccc(C(=O)N(CCCS(C)(=O)=O)CC(=O)O)c2)cc1` [Example 32, 2-[[3-[[4-(4,5-Difluoro-2-methylsulfanyl-phenyl)phenoxy]methyl]benzoyl]-(3-methylsulfonylpropyl)amino]acetic Acid], for which the Emax was determined as 7.1%.
Still for that read-out and setting: the value for `N#CCCN(CC(=O)O)C(=O)c1cccc(COc2ccc(-c3cc(F)c(F)c4ccoc34)cc2)c1` [Example 75, 2-[2-Cyanoethyl-[3-[[4-(4,5-difluorobenzofuran-7-yl)phenoxy]methyl]benzoyl]amino]acetic Acid] was 38%; that for `O=C(O)[C@@H]1[C@@H](O)CCN1C(=O)c1cccc(COc2ccc(-c3cc(F)c(F)c4ccoc34)cc2)c1` [Example 2, (2S,3S)-1-[3-[[4-(4,5-Difluorobenzofuran-7-yl)phenoxy]methyl]benzoyl]-3-hydroxy-pyrrolidine-2-carboxylic Acid] was 5%.
Same read-out and setting: then `COCCCN(CC(=O)O)C(=O)c1cccc(COc2ccc(-c3cc(F)c(F)cc3SC)cc2)c1` [Example 30, 2-[[3-[[4-(4,5-Difluoro-2-methylsulfanyl-phenyl)phenoxy]methyl]benzoyl]-(3-methoxypropyl)amino]acetic Acid], with 83%.
Same read-out and setting: the value for `CN(C)CCN(CC(=O)O)C(=O)c1cccc(COc2ccc(-c3cc(F)c(F)c4ccoc34)cc2)c1` [Example 13, 2-[[3-[[4-(4,5-Difluorobenzofuran-7-yl)phenoxy]methyl]benzoyl]-(2-dimethylaminoethyl)amino]acetic Acid Trifluoroacetate] was 5.3%; that for `CO[C@H]1CCN(C(=O)c2cccc(COc3ccc(-c4cc(F)c(F)c5ccoc45)cc3)c2)[C@@H]1C(=O)O` [Example 78, (2S,3S)-1-[3-[[4-(4,5-Difluorobenzofuran-7-yl)phenoxy]methyl]benzoyl]-3-methoxy-pyrrolidine-2-carboxylic Acid] was 65%; that for `CSc1cc(F)c(F)cc1-c1ccc(OCc2cccc(C(=O)N(CC(=O)O)CC3CCN(C)CC3)c2)cc1` [Example 37, 2-[[3-[[4-(4,5-Difluoro-2-methylsulfanyl-phenyl)phenoxy]methyl]benzoyl]-[(1-methyl-4-piperidyl)methyl]amino]acetic Acid Trifluoroacetate] was 10%.
Take `CSc1cc(F)c(F)cc1-c1ccc(OCc2cccc(C(=O)N(CC(=O)O)Cc3ccon3)c2)cc1` [Example 66, 2-[[3-[[4-(4,5-Difluoro-2-methylsulfanyl-phenyl)phenoxy]methyl]benzoyl]-(isoxazol-3-ylmethyl)amino]acetic Acid]: the Emax is 22%.
On the same count and under the same terms, the value for `CNC(=O)CN(CC(=O)O)C(=O)c1cccc(COc2ccc(-c3cc(F)c(F)c4ccoc34)cc2)c1` [Example 15, 2-[[3-[[4-(4,5-Difluorobenzofuran-7-yl)phenoxy]methyl]benzoyl]-[2-(methylamino)-2-oxo-ethyl]amino]acetic Acid] was 12%; that for `CSc1cc(F)c(F)cc1-c1ccc(OCc2cccc(C(=O)N3C[C@H](C(N)=O)C[C@H]3C(=O)O)c2)cc1` [Example 61, (2S,4R)-4-Carbamoyl-1-[3-[[4-(4,5-difluoro-2-methylsulfanyl-phenyl)phenoxy]methyl]benzoyl]pyrrolidine-2-carboxylic Acid] was 17%; that for `CSc1cc(F)c(F)cc1-c1ccc(OCc2cccc(C(=O)N(CC(=O)O)CC3CCOCC3)c2)cc1` [Example 34, 2-[[3-[[4-(4,5-Difluoro-2-methylsulfanyl-phenyl)phenoxy]methyl]benzoyl]-(tetrahydropyran-4-ylmethyl)amino]acetic Acid] was 7.3%.
Same read-out and setting: the value for `CSc1cc(F)c(F)cc1-c1ccc(OCc2cccc(C(=O)N(CCn3cncn3)CC(=O)O)c2)cc1` [Example 70, 2-[[3-[[4-(4,5-Difluoro-2-methylsulfanyl-phenyl)phenoxy]methyl]benzoyl]-[2-(1,2,4-triazol-1-yl)ethyl]amino]acetic Acid] was 14%.
Still for that read-out and setting: then `CSc1cc(F)c(F)cc1-c1ccc(OCc2cccc(C(=O)N(CC(=O)O)C3CCNCC3)c2)cc1` [Example 36, 2-[[3-[[4-(4,5-Difluoro-2-methylsulfanyl-phenyl)phenoxy]methyl]benzoyl]-(4-piperidyl)amino]acetic Acid Trifluoroacetate], with 8%; and `O=C(O)CN(C(=O)c1cccc(COc2ccc(-c3cc(F)c(F)c4ccoc34)cc2)c1)C1CCNC1=O` (centres unmarked) [Example 82, 2-[[3-[[4-(4,5-Difluorobenzofuran-7-yl)phenoxy]methyl]benzoyl]-(2-oxopyrrolidin-3-yl)amino]acetic Acid], with 11%.
Turning to `CSc1cc(F)c(F)cc1-c1ccc(OCc2cccc(C(=O)N(CC(N)=O)CC(=O)O)c2)cc1` [Example 10, 2-[(2-Amino-2-oxo-ethyl)-[3-[[4-(4,5-difluoro-2-methylsulfanyl-phenyl)phenoxy]methyl]benzoyl]amino]acetic Acid], the Emax came to 6.7%.
Same read-out and setting: then `Cc1coc2c(-c3ccc(OCc4cccc(C(=O)N(CCS(C)(=O)=O)CC(=O)O)c4)cc3)cc(F)c(F)c12` [Example 14, 2-[[3-[[4-(4,5-Difluoro-3-methyl-benzofuran-7-yl)phenoxy]methyl]benzoyl]-(2-methylsulfonylethyl)amino]acetic Acid], with 7.5%.
On the same count and under the same terms, then `CSc1cc(F)c(F)cc1-c1ccc(OCc2cccc(C(=O)N(CCN3CCS(=O)(=O)CC3)CC(=O)O)c2)cc1` [Example 41, 2-[[3-[[4-(4,5-Difluoro-2-methylsulfanyl-phenyl)phenoxy]methyl]benzoyl]-[2-(1,1-dioxo-1,4-thiazinan-4-yl)ethyl]amino]acetic Acid Trifluoroacetate], with 12%.
On the same count and under the same terms, then `CSc1cc(F)c(F)cc1-c1ccc(OCc2cccc(C(=O)N(CCS(N)(=O)=O)CC(=O)O)c2)cc1` [Example 51, 2-[[3-[[4-(4,5-Difluoro-2-methylsulfanyl-phenyl)phenoxy]methyl]benzoyl]-(2-sulfamoylethyl)amino]acetic Acid], with 5.8%.
Regarding `CSc1cc(F)c(F)cc1-c1ccc(OCc2cccc(C(=O)N(CC(=O)O)CC(=O)O)c2)cc1` [Example 27, 2-[Carboxymethyl-[3-[[4-(4,5-difluoro-2-methylsulfanyl-phenyl)phenoxy]methyl]benzoyl]amino]acetic Acid], the Emax amounted to 10%.
The same measure, in the same setting: the value for `CSc1cc(F)c(F)cc1-c1ccc(OCc2cccc(C(=O)N(CCC(C)O)CC(=O)O)c2)cc1` (centres unmarked) [Example 21, 2-[[3-[[4-(4,5-Difluoro-2-methylsulfanyl-phenyl)phenoxy]methyl]benzoyl]-(3-hydroxybutyl)amino]acetic Acid] was 15%; that for `CSc1cc(F)c(F)cc1-c1ccc(OCc2cccc(C(=O)N3C[C@H](O)C[C@H]3C(=O)O)c2)cc1` [Example 29, (2S,4R)-1-[3-[[4-(4,5-Difluoro-2-methylsulfanyl-phenyl)phenoxy]methyl]benzoyl]-4-hydroxy-pyrrolidine-2-carboxylic Acid] was 22%.
